Assay results taken from US20060211690A1, “Microglia inhibitors for interrupting interleukin 12 and IFNgamma-mediated immune reactions” (Schering Aktiengesellschaft, priority 2002, published 2006).
pEC50, pIC50: −log10 of the molar value.

Key:
[1] = test system: TNFα; assay: Inhibition of the TNFα production in LPS-stimulated THP-1 cells; assay type: cell-based; details: Homo sapiens, 0.1 μg/ml LPS overnight, read-out: Inhibition of the TNFα Secretion (IC50)
Procedure: (§1) The inhibition of the cytokine production can be visualized, for example, by measuring TNFα and interleukin 12 in lipopolysaccharide (LPS)-stimulated THP-1 cells.
(§2) For this purpose, 2.5×10^5 THP-1 cells (American Type Culture Company, Rockville, Md.)/ml of RPMI 1640 medium (Life Technologies)/10% FCS (Life Technologies, Cat. No. 10270-106) are grown on 96-hole flat-bottomed cell culture plates (TPP, Product No.9296) (100 μl/hole). The compounds according to the invention are added at various concentrations and pre-incubated for 30 minutes. The pre-dilution of the test substances was performed in the incubation medium. The addition of the test substances is carried out as a 2× concentrated substance solution (100 μl/hole). The stimulation of the cells was carried out overnight at 37° C with 0.1 μg/ml of LPS (Sigma L2630, of E. Coli Serotype 011 1.B4). Then, the medium was harvested, and the amount of TNFα or the amount of interleukin 12 was quantitatively determined. To measure the TNFα, a commercially available TNFα kit of the CIS Bio International Company was used (Product No. 62TNFPEB). The amount of interleukin 12 was implemented with the aid of the ORIGEN technology (IGEN International, Inc., Gaithersburg, Md.). The calculated IC50 value corresponds to the concentration of test substance that is required to reach a 50% inhibition of the maximum TNFα or interleukin 12 production. […]

[2] = test system: interleukin 12; assay: Inhibition of the IL 12 production in LPS-stimulated THP-1 cells; assay type: cell-based; details: Homo sapiens, 0.1 μg/ml LPS overnight, read-out: Inhibition of the IL 12 Secretion (IC50)
Procedure: as §1, §2

[3] = test system: IFNγ; assay: Inhibition of the IFNγ production of peripheral mononuclear blood cells (phytohemagglutinin-stimulated); assay type: cell-based; details: human peripheral mononuclear blood cells, 5 μg/mL phytohemagglutinin, 48 hours; read-out: Inhibition of the IFNγ Secretion (IC50)
Procedure: To visualize the effect of the substances on T-cell activation, for example, the measurement of the IFNγ-secretion can be used.
To isolate peripheral mononuclear cells, human whole blood was used (drawing of blood via Na-citrate S-monovettes “Coagulation 9 NC/10 ml”/Sarstedt). The build-up of the blood cells was accomplished with the aid of density gradient centrifuging: For this purpose, 15 ml of Histopaque 1077 (Sigma, Cat. No. H8880) in LEUCOSEP tubes (Greiner, Cat. No. 227290) is introduced and centrifuged for 30 seconds at 1000 g. Then, 15 ml of whole blood is added and centrifuged for 10 minutes at 1000 g. Finally, the upper plasma layer is pipetted off and the subjacent cell layer (peripheral mononuclear blood cells) is transferred in 15 ml sample tubes (Falcon) and then […] several times with 10 ml of HBSS (HANKS Balanced Solution (without Mg2+ and Ca2+), Cat. No. 14175-53). […]
Then the medium was harvested, and the amount of IFNγ was determined quantitatively. The amount of IFNγ was determined with the aid of the ORIGEN technology (IGEN International, Inc., Gaithersburg, Md.). […]

[4] = test system: IL-12 HD p70; assay: Inhibition of IL-12 HD p70 production of peripheral mononuclear blood cells stimulated with LPS and IFNγ; assay type: cell-based, human; details: 24 hours; for pIC50: Homo sapiens, read-out: Inhibition of IL-12HD Secretion after LPS & IFNg Stimulation IC50
Procedure: (§3) The inhibition of the TNFα and IL-12 HD p70 production is visualized by, for example, measuring TNFα and IL-12 HD p70 in peripheral mononuclear blood cells that are stimulated with lipopolysaccharide (LPS) and interferon gamma (IFNγ).
(§4) To isolate peripheral mononuclear blood cells, human whole blood was used (drawing of blood via Na-Citrate S-monovettes “Coagulation 9 NC/10 ml”/Sarstedt). The build-up of the lymphocytes and monocytes was accomplished with the aid of the density gradient centrifuging: For this purpose, 15 ml of Histopaque-1077 (Sigma, Cat. No. H8880) is introduced into 50 ml LEUCOSEP tubes (Greiner, Cat. No. 227290) and forced downward by centrifuging for 30 seconds at 250 g by the frits that are contained in the tubes. Then, 20 ml of whole blood is added and centrifuged for 15 minutes at 800 g and at room temperature. After centrifuging, the supernatant (plasma and thrombocytes) is pipetted off and discarded, and the subjacent cell layer (lymphocytes and monocytes) is transferred into 50 ml centrifuging tubes (Falcon) and then washed 3× in culture medium VLE RPMI 1640 (Seromed, No. FG1415) (centrifuging in each case for 10 minutes at 250 g, room temperature). Finally, the cell pellet is resuspended in culture medium VLE RPMI 1640 (Seromed, No. FG1415), 10% FCS (Life Technologies, Cat. No. 16000-044, low endotoxin, heat-inactivated for 1 hour, 56° C.), and 50 μg/ml of penicillin-streptomycin solution (Life Technologies, Cat. No.15140-106) and set at 3×10^6 cells/ml after cell counting by means of trypan blue staining. In each case, 100 μl of cell suspension solution was dispersed on 96-hole flat-bottomed cell culture plates (Costar, Product No. 3599). In each case, 100 μl of 3×-concentrated stimulation solution (3 μg/ml of LPS of E. coli Serotype 0127:B8; Sigma, Cat. No. L-4516 and 300 ng/ml of IFNγ 1b, Imukin, Boehringer Ingelheim) was added to it. The substances according to the invention were added at various concentrations as 3×-concentrated substance solution (100 μl/well). The stimulation of the cells was carried out at 37° C. and 5% CO2 over a period of 24 hours. Then, the cell culture supernatant was harvested, and the concentrations of TNFα and IL-12 HD p70 were determined by means of commercially available ELISA Kits of the BioSource International Company (TNF-α EASIA, Cat. No. KAC 1752) and R & D Systems (Quantikine1υ HS IL-12, Cat. No. HS 120).
(§5) The calculated IC50 value corresponds to the concentration of test substance that is required to reach a 50% inhibition of the maximum TNFα- or interleukin 12 HD p70 production.

[5] = test system: TNFα; assay: Inhibition of TNFα production of peripheral mononuclear blood cells stimulated with LPS and IFNγ; assay type: cell-based, human; details: 24 hours; for pIC50: Homo sapiens, read-out: Inhibition of TNF-alpha Secretion after LPS & IFNg Stimulation IC50
Procedure: as §3, §4, §5

[6] = test system: IL-10; assay: Induction of IL-10 production of peripheral mononuclear blood cells; assay type: cell-based, human; details: 24 hours; for pEC50: Homo sapiens, PHA, read-out: Induction of the IL-10 Secretion after PHA Stimulation EC50
Procedure: The induction of IL-10 production is visualized by, for example, measuring IL-10 in peripheral mononuclear blood cells that are stimulated in phytohemagglutinin (PHA) or lipopolysaccharide (LPS).
To isolate peripheral mononuclear blood cells, human whole blood was used (drawing of blood via Na-Citrate S-monovettes “Coagulation 9 NC/10 ml”/Sarstedt). The build-up of the lymphocytes and monocytes was accomplished with the aid of the density gradient centrifuging: For this purpose, 15 ml of Histopaque-1077 (Sigma, Cat. No. H8880) in 50 ml LEUCOSEP tubes (Greiner, Cat. No. 227290) is introduced and forced downward by centrifuging for 30 seconds at 250 g by the frits that are contained in the tubes. Then, 20 ml of whole blood is added and centrifuged for 15 minutes at 800 g and at room temperature. After centrifuging, the supernatant (plasma and thrombocytes) is pipetted off and discarded, and the subjacent cell layer (lymphocytes and monocytes) in 50 ml centrifuging tubes (Falcon) is transferred and then washed 3× in culture medium VLE RPMI 1640 (Seromed, No. FG1415) (centrifuging in each case for 10 minutes at 250 g, room temperature). Finally, the cell pellet is resuspended in culture medium VLE RPMI 1640 (Seromed, No. FG1415), 10% FCS (Life Technologies, Cat. No. 16000-044, low endotoxin, heat-inactivated for 1 hour, 56° C.), 50 μg/ml of penicillin-streptomycin solution (Life Technologies, Cat. No. 15140-106) and set at 3×10^6 cells/ml after cell counting by means of trypan blue staining. In each case, 100 μl of cell suspension solution was dispersed on 96-hole flat-bottomed cell culture plates (Costar, Product No. 3599). In each case, 100 μl of 3×-concentrated stimulation solution (3 μg/ml of LPS of E. coli Serotype 0127:B8; Sigma, Cat. No. L-4516 or 300 μg/ml of PHA-L, Biochrom KG, Cat. No. M5030) was added to it. The substances according to the invention were added at various concentrations as 3×-concentrated substance solution (100 μl/well). The stimulation of the cells was carried out at 37° C. and 5% CO2 over a period of 24 hours. Then, the cell culture supernatant was harvested, and IL-10 was determined quantitatively. The IL-10 concentration was determined by means of a commercially available ELISA Kit of the BioSource International Company (human IL-10, Cat. No. KHC0101C). The calculated EC50 value corresponds to the concentration of test substance that is required to increase the IL-10 secretion by 50% of the maximum increase.

[7] = test system: microglia; assay: Inhibition of the microglia activation; assay type: cell-based
From the text: Compounds that with stimulation with the Aβ-peptide achieve an inhibition of the microglia activity of at least 20% and an inhibition of the cytokine activity of at least 30% are suitable, according to the invention, as microglia inhibitors. The biological properties of the microglia inhibitors can be shown according to the methods that are known to one skilled in the art, for example with the aid of the testing methods that are described below and in WO 01/51473.

Row | pIC50 [1] | pIC50 [2] | pIC50 [3] | pIC50 [4] | pIC50 [5] | pEC50 [6] | pIC50 [7] | Structure (SMILES) | Inhibition of IL-12HD Secretion after LPS & IFNg Stimulation Effectiveness [4] [%] | Inhibition of TNF-alpha Secretion after LPS & IFNg Stimulation Effectiveness [5] [%] | Induction of the IL-10 Secretion after PHA Stimulation Effectiveness [6] [%]
1 | 5.52 | 5.66 | 5.89 | 7.04 | 6.19 | < 6.00 | 6.12 | Cc1ccc(-n2c(-c3ccccc3)nc3ccc(OCCCCCC(=O)OC(C)C)cc32)cc1 [Substance 1, 6-[[1-(4-Methylphenyl)-2-phenyl-1H-benzimidazol-6-yl]oxy]hexanoic acid-isopropyl ester] | 81 | 65 | 245
2 | 6.82 | > 6.52 | 6.96 | 7.52 | 6.92 | 6.74 | 6.80 | Cc1ccc(-n2c(-c3ccccc3)nc3ccc(OCCCCCC(=O)O)cc32)cc1 [Substance 2, 6-[[1-(4-Methylphenyl)-2-phenyl-1H-benzimidazol-6-yl]oxy]hexanoic acid] | 93 | 83 | 283
